In patent US20260138959A1, “QUINAZOLINE DERIVATIVE COMPOUND AND USE THEREOF” (VORONOI INC., priority 2021, published 2026) one finds GI50 data, which are given here for 26 molecules.

Assay [1] deals with Ba/F3-c-KIT(D816V). Nature of the assay: Proliferation inhibitory activity on Ba/F3 cell (CellTiter-Glo, 72 hours), c-KIT(D816V). It is filed as cell-based. Conditions: Mus musculus, BaF3, read-out: Ba/F3 (nM) c-KIT (D816V) (GI50 class). On the procedure: (§1) Ba/F3-TEL-PDGFRα(WT), Ba/F3-TEL-PDGFβ(WT), Ba/F3-c-KIT(D816V) (Kyinno, #KC-0138), c-KIT V560G/D816V, c-KIT D814Y were seeded at 3×10^3/100 μl/well in a clear bottom white 96-well plate. A culture solution containing compounds of 12 concentrations (0.00001-2 mM) serially diluted in 3 folds and the DMSO control group was added at 0.5 μl/well each to a final concentration of 0.00005-10 μM, and then incubated in a CO2 incubator at 37° C. for 72 hours. After 72 hours, the plate treated with the compound was taken out, CellTiter-Glo® Assay (Promega) solution was treated with 100 μl/well, followed by mixing well. After mixing well for about 10 minutes at room temperature, […] was measured using a microplate reader. The data were presented as percentages in proportion to treated cells based on the vehicle, GI50 (nM) values were calculated using GraphPad Prism 8.3.0 (GraphPad software Inc., San Diego).
(§2) The inhibitory activities of Ba/F3 expressing PDGFR-α, PDGFR-β, c-KIT(D816V), c-KIT V560G/D816V, and c-KIT D814Y measured as described above were measured and shown in Table 7 below (A: GI50≤200 nM; B: 200 nM<GI50≤500 nM; C: GI50>500 nM).

In assay [2] the test system is c-KIT V560G/D816V. Nature of the assay: Proliferation inhibitory activity on Ba/F3 cell (CellTiter-Glo, 72 hours), c-KIT V560G/D816V. The format is cell-based. To be noted: Mus musculus, BaF3, c-KIT V560G/D816V cells, read-out: Cell (nM) c-KIT V560G/D816V (GI50 class). As to the method: as §1, §2
A general note: In ATP-based viability assays light output follows the ATP content of the culture.

Each structure is given as a SMILES string.

As to `COc1cc2ncnc(-c3ccc(NC(=O)Cc4ccc(C(F)(F)F)cc4)cc3)c2cc1OCCCNC1CC1` [Example 154, N-(4-(6-(3-(cyclopropylamino)propoxy)-7-methoxyquinazolin-4-yl)phenyl)-2-(4-(trifluoromethyl)phenyl)acetamide], the GI50 in assay [1] was no more than 200 nM. As to `COc1cc2c(-c3ccc(NC(=O)Cc4ccc(C(F)(F)F)cc4)cc3)ncnc2cc1OCC1CCCNC1` (centres unmarked) [Example 16, N-(4-(6-methoxy-7-(piperidin-3-ylmethoxy)quinazolin-4-yl)phenyl)-2-(4-(trifluoromethyl)phenyl)acetamide], the GI50 in assay [1] was no more than 200 nM. `COc1ccc(CC(=O)Nc2ccc(-c3ncnc4cc(OCC5CCN(C(C)=O)CC5)c(OC)cc34)cc2)cn1` [Example 103, N-(4-(7-((1-acetylpiperidin-4-yl)methoxy)-6-methoxyquinazolin-4-yl)phenyl)-2-(6-methoxypyridin-3-yl)acetamide]: in assay [2], the GI50 fell in the range of 200 to 500 nM. Turning to `COc1cc2c(-c3ccc(NC(=O)Cn4cc(C(C)C)nn4)cc3)ncnc2cc1OCC1CCNCC1` [Example 61, 2-(4-isopropyl-1H-1,2,3-triazole-1-yl)-N-(4-(6-methoxy-7-(piperidin-4-ylmethoxy)quinazolin-4-yl)phenyl)acetamide], in assay [1], the GI50 was greater than 500 nM. For the molecule `COc1cc2c(-c3ccc(NC(=O)Cc4ccc(C(F)(F)F)cc4)cc3)ncnc2cc1OCC1CCNCC1` [Example 17, N-(4-(6-methoxy-7-(piperidin-4-ylmethoxy)quinazolin-4-yl)phenyl)-2-(4-(trifluoromethyl)phenyl)acetamide], the GI50 in assay [2] is no more than 200 nM. On to `CCN1CC2(C1)CN(CCCOc1cc3ncnc(-c4ccc(NC(=O)Cc5ccc(C(F)(F)F)cc5)cc4)c3cc1OC)C2` [Example 21, N-(4-(7-(3-(6-ethyl-2,6-diazaspiro[3.3]heptane-2-yl)propoxy)-6-methoxyquinazolin-4-yl)phenyl)-2-(4-(trifluoromethyl)phenyl)acetamide], for which the GI50 in assay [1] was no more than 200 nM. On to `COc1cc2c(-c3ccc(NC(=O)Cn4cc(C(C)(C)C)nn4)cc3)ncnc2cc1OCC1CCN(C)CC1` [Example 106, 2-(4-(tert-butyl)-1H-1,2,3-triazole-1-yl)-N-(4-(6-methoxy-7-((1-methylpiperidin-4-yl)methoxy)quinazolin-4-yl)phenyl)acetamide], for which the GI50 in assay [2] is greater than 500 nM.

On to `COc1cc2c(-c3ccc(NC(=O)Cn4cc(C(C)C)nn4)cc3)ncnc2cc1OCCCN1CCN(C)CC1` [Example 67, 2-(4-isopropyl-1H-1,2,3-triazole-1-yl)-N-(4-(6-methoxy-7-(3-(4-methylpiperazin-1-yl)propoxy)quinazolin-4-yl)phenyl)acetamide], for which the GI50 in assay [1] was no more than 200 nM. On to `CCN1CCCC(COc2cc3ncnc(-c4ccc(NC(=O)Cn5cc(C(C)C)nn5)cc4)c3cc2OC)C1` (centres unmarked) [Example 111, N-(4-(7-((1-ethylpiperidin-3-yl)methoxy)-6-methoxyquinazolin-4-yl)phenyl)-2-(4-isopropyl-1H-1,2,3-triazole-1-yl)acetamide], for which the GI50 in assay [2] is greater than 500 nM. Same read-out and setting: then `COc1cc2c(-c3ccc(NC(=O)Cn4cc(C(C)(C)C)nn4)cc3)ncnc2cc1OCC1CCN(C(C)C)CC1` [Example 119, 2-(4-(tert-butyl)-1H-1,2,3-triazole-1-yl)-N-(4-(7-((1-isopropylpiperidin-4-yl)methoxy)-6-methoxyquinazolin-4-yl)phenyl)acetamide], with greater than 500 nM; and `COc1cc2c(-c3ccc(NC(=O)C(C)(C)c4ccc(F)cc4)cc3)ncnc2cc1OCC1CCNCC1` [Example 88, 2-(4-fluorophenyl)-N-(4-(6-methoxy-7-(piperidin-4-ylmethoxy)quinazolin-4-yl)phenyl)-2-methylpropanamide], with 200 to 500 nM. Regarding `COc1cc2c(-c3ccc(NC(=O)Cc4ccc(C(F)(F)F)nc4)cc3)ncnc2cc1OCC1CCN(C(C)=O)CC1` [Example 104, N-(4-(7-((1-acetylpiperidin-4-yl)methoxy)-6-methoxyquinazolin-4-yl)phenyl)-2-(6-(trifluoromethyl)pyridin-3-yl)acetamide], the GI50 in assay [2] is 200 to 500 nM. For the molecule `COc1cc2c(-c3ccc(NC(=O)Cn4cc(C(C)C)nn4)cc3)ncnc2cc1OCC1CCN(C(C)C)CC1` [Example 120, 2-(4-isopropyl-1H-1,2,3-triazole-1-yl)-N-(4-(7-((1-isopropylpiperidin-4-yl)methoxy)-6-methoxyquinazolin-4-yl)phenyl)acetamide], in assay [2], the GI50 is greater than 500 nM.

`CCN1CCCC(COc2cc3ncnc(-c4ccc(NC(=O)Cn5cc(C(C)(C)C)nn5)cc4)c3cc2OC)C1` (centres unmarked) [Example 112, 2-(4-(tert-butyl)-1H-1,2,3-triazole-1-yl)-N-(4-(7-((1-ethylpiperidin-3-yl)methoxy)-6-methoxyquinazolin-4-yl)phenyl)acetamide]: the GI50 in assay [2] is greater than 500 nM.

`COCCN1CCC(COc2cc3ncnc(-c4ccc(NC(=O)Cn5cc(C(C)C)nn5)cc4)c3cc2OC)CC1` [Example 94, 2-(4-isopropyl-1H-1,2,3-triazole-1-yl)-N-(4-(6-methoxy-7-((1-(2-methoxyethyl)piperidin-4-yl)methoxy)quinazolin-4-yl)phenyl)acetamide]: in assay [2], the GI50 is greater than 500 nM. As for `COc1cc2c(-c3ccc(NC(=O)Cn4cc(C(C)(C)C)nn4)cc3)ncnc2cc1OCC1CCN(C(C)=O)CC1` [Example 108, N-(4-(7-((1-acetylpiperidin-4-yl)methoxy)-6-methoxyquinazolin-4-yl)phenyl)-2-(4-(tert-butyl)-1H-1,2,3-triazole-1-yl)acetamide], the GI50 in assay [2] was greater than 500 nM. As to `CCN1CCC(COc2cc3ncnc(-c4ccc(NC(=O)C5(c6ccc(F)cc6)CC5)cc4)c3cc2OC)CC1` [Example 93, N-(4-(7-((1-ethylpiperidin-4-yl)methoxy)-6-methoxyquinazolin-4-yl)phenyl)-1-(4-fluorophenyl)cyclopropane-1-carboxamide], in assay [2], the GI50 was in the range of 200 to 500 nM.

As for `COc1cc2c(-c3ccc(NC(=O)C4(c5ccc(F)cc5)CC4)cc3)ncnc2cc1OCC1CCNCC1` [Example 91, 1-(4-fluorophenyl)-N-(4-(6-methoxy-7-(piperidin-4-ylmethoxy)quinazolin-4-yl)phenyl)cyclopropane-1-carboxamide], the GI50 in assay [2] lay in the range of 200 to 500 nM. Same read-out and setting: then `COc1cc2c(-c3ccc(NC(=O)Cn4cc(C(C)C)nn4)cc3)ncnc2cc1OCC1CCN(C(C)=O)CC1` [Example 107, N-(4-(7-((1-acetylpiperidin-4-yl)methoxy)-6-methoxyquinazolin-4-yl)phenyl)-2-(4-isopropyl-1H-1,2,3-triazole-1-yl)acetamide], with greater than 500 nM; and `COc1cc2c(-c3ccc(NC(=O)Cc4ccc(C(F)(F)F)cc4)cc3)ncnc2cc1OCC1CCN(C(C)=O)CC1` [Example 102, N-(4-(7-((1-acetylpiperidin-4-yl)methoxy)-6-methoxyquinazolin-4-yl)phenyl)-2-(4-(trifluoromethyl)phenyl)acetamide], with no more than 200 nM. The same measure, in the same setting: the value for `COc1cc2c(-c3ccc(NC(=O)Cn4cc(C(C)C)nn4)cc3)ncnc2cc1OCC1CCN(C)CC1` [Example 105, 2-(4-isopropyl-1H-1,2,3-triazole-1-yl)-N-(4-(6-methoxy-7-((1-methylpiperidin-4-yl)methoxy)quinazolin-4-yl)phenyl)acetamide] was greater than 500 nM; that for `COCCN1CCC(COc2cc3ncnc(-c4ccc(NC(=O)Cn5cc(C(C)(C)C)nn5)cc4)c3cc2OC)CC1` [Example 95, 2-(4-(tert-butyl)-1H-1,2,3-triazole-1-yl)-N-(4-(6-methoxy-7-((1-(2-methoxyethyl)piperidin-4-yl)methoxy)quinazolin-4-yl)phenyl)acetamide] was greater than 500 nM.

Take `COCCN1CCC(COc2cc3ncnc(-c4ccc(NC(=O)C5(c6ccc(F)cc6)CC5)cc4)c3cc2OC)CC1` [Example 92, 1-(4-fluorophenyl)-N-(4-(6-methoxy-7-((1-(2-methoxyethyl)piperidin-4-yl)methoxy)quinazolin-4-yl)phenyl)cyclopropane-1-carboxamide]: the GI50 in assay [2] was in the range of 200 to 500 nM. As to `COc1cc2c(-c3ccc(NC(=O)Cc4ccc(C(F)(F)F)cc4)cc3)ncnc2cc1OCC1CCN(C(=O)OC(C)(C)C)CC1` [Example 15, tert-butyl 4-(((6-methoxy-4-(4-(2-(4-(trifluoromethyl)phenyl)acetamido)phenyl)quinazolin-7-yl)oxy)methyl)piperidin-1-carboxylate], the GI50 in assay [2] is greater than 500 nM. Consider `COCCN1CCC(COc2cc3ncnc(-c4ccc(NC(=O)CCCc5ccccc5)cc4)c3cc2OC)CC1` [Example 114, N-(4-(6-methoxy-7-((1-(2-methoxyethyl)piperidin-4-yl)methoxy)quinazolin-4-yl)phenyl)-4-phenylbutanamide], for which, in assay [2], the GI50 was in the range of 200 to 500 nM. Turning to `COCCOc1cc2ncnc(-c3ccc(NC(=O)Cc4ccc(C(F)(F)F)cc4)cc3)c2cc1OC` [Example 117, N-(4-(6-methoxy-7-(2-methoxyethoxy)quinazolin-4-yl)phenyl)-2-(4-(trifluoromethyl)phenyl)acetamide], the GI50 in assay [2] was no more than 200 nM.
